Test [1] has as its system myeloid cells from MPN patients. Nature of the test: Colony formation assay from MPN patient samples. It is filed as cell-based, human. The following applies: MPN patient samples (ET; PV Ruxolitinib resistant), scored 12 to 14 days. The procedure:
(§1) To determine the effects of selective HDAC11 inhibition on MPN patient samples, the effects of HDAC11 inhibitors were evaluated in a colony formation assay with erythroid or myeloid cells from MPN patients. Peripheral blood was obtained from MPN patients consented through the Moffitt Cancer Center Total Cancer Care protocol (MCC 14690). Blood was treated with HetaSep™ (STEMCELL Technologies, Inc.) to remove the majority of red blood cells. Peripheral blood mononuclear cells (PBMCs) were isolated by ficoll separation. PBMCs (1-4×105) were then plated in 1 mL of methylcellulose medium containing rhSCF, rhIL-3, and granulocyte-macrophage colony-stimulating factor (rhGM-CSF) (MethoCult™ #H4534; STEMCELL Technologies, Inc.). All drug treated samples contained 0.1% DMSO as the final concentration. Cells were incubated at 37° C. and 5% CO2 in a humidified incubator. Colonies were scored 12 to 14 days after plating.

Test [2] concerns erythroid cells from MPN patients. The test can be described thus: Colony formation assay from MPN patient samples. It is filed as cell-based, human. Conditions: MPN patient samples (ET; PV Ruxolitinib resistant), scored 12 to 14 days. The procedure:
as §1

Test [3] concerns H1650 side population stem-like cells (EGFR mutation). The test can be described thus: Sphere formation assay with stem-like side population NSCLC cells. It is filed as cell-based. The following applies: H1650 SP cells, 0.5-5.0 μM, Day 10. The procedure:
(§2) In order to investigate the role of HDAC11 in the self-renewal of stem-like cancer cells, sphere formation assays were conducted with NSCLC side population (SP) stem-like cells. A549 and NCI-H1650 cells were obtained from the ATCC. Asynchronously growing A549 or NCI-H1650 cells were washed once with phosphate buffered saline (PBS) and harvested using Accutase solution (Sigma Aldrich) and resuspended in DMEM-F12K medium (Gibo, Life Technologies) with 2% fetal bovine serum (FBS) at 1×10^6 cells/ml density. The cells were incubated with 4 μg/ml of Hoechst 33342 dye (Life Technologies) for 90 min at 37° C. in the presence or absence of 1 μM Fumitremorgin C (Sigma-Aldrich) which was used as a control sample to set the gate during sorting. The Hoechst stained cells were sorted using the BD FACSAria cell sorter. The sorted SP cells were plated in 96-well ultra-low adherent plate (Corning Inc) at the cell density of 1000 cells/100 μl/well in stem cell selective medium (DMEM:F12K supplemented with N2 supplement, 10 ng/mL epidermal growth factor (EGF) and 10 ng/ml basic fibroblast growth factor (bFGF) (Sigma-Aldrich) at 37° C. for 7-10 days. The spheres were observed and acquired using EVOS FL microscope system (Life Technologies Inc., USA). The numbers of spheres greater than or equal to 50 μm were counted. To study the effect of the HDAC11 inhibitors, the appropriate concentrations of the compounds were added to the wells on Day 0 and Day 5 and the image acquisition and analysis of the spheres were performed on Day 10. The sphere formation assays were performed twice with triplicates of each treatment in every assay.

Test [4] has as its system A549 side population stem-like cells (KRAS mutation). The test is described as above. The following applies: A549 SP cells, 0.5-5.0 μM, Day 10. It is filed as cell-based. The procedure: as §2
For test [5], the system named is NCI-H2170 cells. Nature of the test: Cell proliferation assay with combination treatment (MTT). It is filed as cell-based. The following applies: H2170, combination with GDC-0449 (Vismodegib) or BMS-833923, 96 hours. The procedure:
(§3) Selective HDAC11 inhibitors may be useful in combination with other targeted agents, including Jak2 inhibitors and Smoothened inhibitors. The effect of combination with the Smoothened inhibitors GDC-0449 (Vismodegib) and BMS-833923 was tested in lung cancer cell lines. A549 and NCI-H2170 cells were obtained from the ATCC. H2170 is a squamous carcinoma cell line. Cell viability was assessed using MTT reagent (Thiazolyl Blue Tetrazolium Bromide) (Sigma-Aldrich). The cells were grown in 96-well plates at a density of 3000-5000 cells/well in triplicates. The HDAC11 inhibitors were added to the adherent cells at different concentrations and treatment was carried out for 96 hours. After treatments, the cells were incubated with the 1 mg/mL MTT reagent at 37° C. for 1 hour. The reaction was terminated with DMSO that solubilizes the formazan product formed. Absorbance at 590 nm was recorded in a plate reader.

Test [6] deals with A549 cells. The test is described as above. It is filed as cell-based. Conditions: A549, combination with GDC-0449 (Vismodegib) or BMS-833923, 96 hours. The procedure: as §3
The target in test [7] is Full length human recombinant HDAC11 (Homo sapiens (Human), UniProt Q96DB2). The test can be described thus: Enzymatic HDAC11 assay, electrophoretic mobility shift. It is filed as biochemical. The following applies: substrate FAM-RHKK(tri-fluor-Ac)-NH2, read-out: HDAC11 IC50 Range. In outline:
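Baculovirus-expressed enzyme (10 nM) with 2 μM FAM-RHKK(tri-fluor-Ac)-NH2 in 100 mM HEPES pH 7.5, 25 mM KCl, 0.1% BSA, 0.01% Triton X-100, 1% DMSO at 25 °C. Substrate and product separated by microfluidic electrophoresis; inhibition from product/(substrate+product) ratio. IC50 by 4-parameter fit over 12 concentrations.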

Bounds are passed on as bounds.

Full length human recombinant HDAC11, sequence (Q96DB2 whole entry): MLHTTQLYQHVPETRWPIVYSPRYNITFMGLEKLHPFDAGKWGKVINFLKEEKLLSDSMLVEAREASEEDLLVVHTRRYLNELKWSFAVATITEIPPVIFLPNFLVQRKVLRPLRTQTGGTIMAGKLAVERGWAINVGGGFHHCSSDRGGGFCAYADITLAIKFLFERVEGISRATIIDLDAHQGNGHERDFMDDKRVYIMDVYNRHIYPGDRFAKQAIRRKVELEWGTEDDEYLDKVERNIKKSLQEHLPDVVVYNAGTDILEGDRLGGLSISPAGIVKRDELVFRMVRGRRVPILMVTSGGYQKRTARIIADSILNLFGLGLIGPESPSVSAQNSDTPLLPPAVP

As for `O=C(NO)c1cccc(Nc2nc3cc(Cl)c(Cl)cc3o2)c1` [HDTK010, 3-((5,6-dichlorobenzo[d]oxazol-2-yl)amino)-N-hydroxybenzamide], the “growth of colonies from myeloid cells” value in test [1] was “reduced the growth of colonies”. For the same compound, the “growth of colonies from erythroid cells” value in test [2] is listed as “reduced the growth of colonies”. Also, the “growth of stem-like cancer cells (sphere formation)” value in test [3] and in test [4] was “prevented growth” in each case. For the same compound, the “cell viability, combination with the Smoothened inhibitors” value in test [5] and in test [6] was “decreased cell viability” in each case.

The IC50 is the point on the concentration scale where inhibition reaches its midpoint. As to `O=C(NO)c1cccc2c1C[C@]1(CCN(Cc3ccc(Cl)c(C(F)(F)F)c3)C1=O)C2` [HDTK054, (S)-1′-(4-chloro-3-(trifluoromethyl)benzyl)-N-hydroxy-2′-oxo-1,3-dihydrospiro[indene-2,3′-pyrrolidine]-4-carboxamide], the IC50 in test [7] was less than 500 nM. Further, the “growth of stem-like cancer cells (sphere formation)” value in test [3] and in test [4] was “prevented growth” throughout. Besides, the “cell viability, combination with the Smoothened inhibitors” value in test [5] and in test [6] was “decreased cell viability” throughout.
